From patent US20240116986A1, “FUSION PEPTIDES CONTAINING DIMERIC ALPHA-HELICES, PEPTIDE-MOLECULARCONJUGATES CONTAINING THE SAME AND NUCLEIC ACID DELIVERY COMPOSITIONSCONTAINING THE SAME” (Artprobio Co., Ltd., priority 2022, published 2024)
Read-outs that look alike come from different tables or passages of the source.

How the values were obtained:
[1] = tested on: ssDNA PolyT40; experiment: EMSA with ssDNA PolyT40; type: binding
[2] = tested on: ssDNA PolyT200; experiment: EMSA with ssDNA PolyT200; type: binding
Description: The peptide-molecule conjugates of Examples 16, 17 and 18 (Glc2-AA-U2, Glc2-AA-U4, Glc2-AA-U6) were dispersed in distilled water. […] After preparing the mixtures of the peptide-molecule conjugates of Examples 16, 17 and 18 (Glc2-AA-U2, Glc2-AA-U4, Glc2-AA-U6) and the ssDNA PolyT200 (5 μL) at the nucleobase ratios described above, they were analyzed by EMSA.
The aqueous solution of the peptide-molecule conjugate of Example 19 (Glc2-AA-U8) was sonicated for 5 minutes or heated at 90° C. for 5 minutes, respectively. The heated peptide-molecule conjugate was indicated by ‘heat’.
The mixtures prepared by mixing the peptide-molecule conjugate of Example 19 (Glc2-AA-U8) aqueous solution (sonicated or heated) and ssDNA PolyT200 (5 μL) at nucleobase ratios of 20, 30 or 40 were analyzed by EMSA.

[3] = tested on: EGFP mRNA; experiment: EMSA of nanostructure formation with EGFP mRNA; type: binding
Description: When a nanostructure was formed through self-assembly by reacting a peptide-molecule conjugate (SAB) with a nucleic acid material (dsDNA or mRNA), agarose gel EMSA was conducted to measure their interactions, binding ratio, stability, etc.
First, the nucleic acid material of a fixed concentration (100 fmol mRNA) was reacted with the peptide-molecule conjugate (SAB) of various concentrations. Immediately before mixing with the nucleic acid material, the peptide-molecule conjugate (SAB) was sonicated for 5 minutes to prevent self-aggregation. The sonicated peptide-molecule conjugate (SAB, 5 μL) was added to the nucleic acid material ([…]) and a nanostructure was prepared by adding distilled water. The sample was prepared by snap cooling. Specifically, after heating at 70° C. for 10 minutes and snap-cooling on ice, the prepared sample was stored at room temperature. The stored sample was mixed with 2 μL of 60% glycerol. Electrophoresis was performed at 100 V for 60 minutes on 0.8% agarose gel using 1×TBE. The band was observed after staining with SYBR™ Gold nucleic acid gel stain (Invitrogen, Waltham, USA).
After sonicating the peptide-molecule conjugate (SAB-gn, n=1 to 6) aqueous solution for 5 minutes, it was immediately mixed with an EGFP mRNA (200 μL) solution. […] An […] nanostructure was prepared as follows by mixing the peptide-molecule conjugate (SAB-gn, n=1 to 6) with the EGFP mRNA. […] The EGFP mRNA and the peptide-molecule conjugate (SAB-gn, n=1 to 6) were mixed at a charge ratio (+/−) of 0, 0.008, 0.016, 0.031, 0.063, 0.125, 0.25, 0.5, 1, 2, 4, 8, 16, 32 or 50.
After incubating the mixture solution overnight and centrifuging at 16,100 g for 30 minutes, the mixture was resuspended in deionized water. After washing twice, the resulting nanostructure was analyzed by EMSA.
After incubating the mixture solution overnight and centrifuging at 16,100 g for 30 minutes, the mixture was resuspended in deionized water.
After heating the mixed solution for 10 minutes at 70° C., it was immediately snap-cooled on ice. RiboRuler Low Range RNA Ladder and RiboRuler High Range RNA Ladder (Thermo Scientific, Waltham, USA) were used on the two lanes on the left side of agarose gel in order to identify the relative locations of the EGFP mRNA bands. The bands of the RiboRuler Low Range RNA Ladder correspond to 1000, 800, 600, 400, 300, 200 and 100 bases, from top to bottom, and the bands of the RiboRuler High Range RNA Ladder correspond to 6000, 4000, 3000, 2000, 1500, 1000, 500 and 200 bases, from top to bottom. Then, the mixtures with charge ratios (+/−) of 0, 0.031, 0.063, 0.125, 0.25, 0.5, 1, 2, 4, 8 and 16 were loaded in sequence.
After heating the mixed solution for 10 minutes at 70° C., it was immediately snap-cooled on ice. RiboRuler High Range RNA Ladder (Thermo Scientific, Waltham, USA) was used on the left side of agarose gel in order to identify the relative locations of the EGFP mRNA bands. The bands of the RiboRuler High Range RNA Ladder correspond to 6000, 4000, 3000, 2000, 1500, 1000, 500 and 200 bases, from top to bottom. Then, the samples were loaded with charge ratios (+/−) of 00, 0.063, 0.125, 0.25, 0.5, 1, 2, 4, 8, 16 and 32 in sequence.

[4] = tested on: ssDNA PolyT100
Description: The concentration of the ssDNA was fixed and the concentration of the peptide-molecule conjugate aqueous solution was varied based on the nucleobase ratio.
After incubating the mixture of the peptide-molecule conjugate and ssDNA overnight, it was analyzed by EMSA.

[5] = different nucleobase ratios (20-100)
[6] = 20 nM EGFP mRNA, 70° C. 10 minutes, snap-cooled

Substance: Ac-(PEG8)-AELAALEAELAALE(Ahx)2-E (adenine)E (adenine)-(Ahx)2-KLAALKAKLAALKAG-(PEG8) [PEG82-AA-U0]
- electrophoretic mobility (EMSA) ([1]; nucleobase ratio 1280:1, compared with Example 12): delayed relatively more

Substance: Ac-(PEG8)-AELAALEAELAALE-(Ahx)2-E (adenine)-(Ahx)2-KLAALKAKLAALKAG-(PEG8) [PEG82-A-U0]
- electrophoretic mobility (EMSA) ([1]; nucleobase ratio 640): delayed slightly

Substance: Ac-R-GS-UELUALEUELAULE-(Ahx)2-E (adenine)E (adenine)-(Ahx)2-KLUALKUKLAULKUG-K (glucose) [R-AA-Glc-U8]
- nanostructure formation (EMSA) ([2]; nucleobase ratio 60): successfully form

Substance: Ac-R-GS-UELUALEUELAULE-(Ahx)2-E (thymine)E (thymine)-(Ahx)2-KLUALKUKLAULKUG-K (glucose) [R-TT-Glc-U8]
- nanostructure formation (EMSA) ([2]; nucleobase ratio 60): successfully form

Substance: Ac-R-GS-UELUALEUELAULE-(Ahx)2-E (thymine)E (thymine)-(Ahx)2-KLUALKUKLAULKUG-K(PEG8)2 [R-TT-PEG82-U8]
- nanostructure formation (EMSA) [2, 5]: successfully form

Substance: Ac-R-GS-UELUALEUELAULE-(Ahx)2-E (thymine)E (thymine)-(Ahx)2-KLUALKUKLAULKUG-K(PEG8) [R-AA-PEG8-U8]
- nanostructure formation (EMSA) [2, 5]: successfully form

Substance: Ac-S-GS-UELUALEUELAULE-(Ahx)2-E (thymine)E (thymine)-(Ahx)2-KLUALKUKLAULKUG-K(PEG8) [S-TT-PEG8-U8]
- nanostructure formation (EMSA) [2, 5]: successfully form

Substance: Glucose-(PEG8)-AELAALEAELAALE-(Ahx)2-K-(Ahx)2-KLAALKAKLAALKAG-(PEG8)-K(^Nglucose)-NH2 [SAB-g2]
- +/− (optimum charge ratio of EGFP mRNA and conjugate showing completely delayed electrophoretic mobility) [3]: >30

Substance: Glucose-(PEG8)-AELAALEAELAALE-(Ahx)2-K-(Ahx)2-KLAALKAKLAALKAG-(PEG8)-NH2 [SAB-g1]
- +/− (optimum charge ratio of EGFP mRNA and conjugate showing completely delayed electrophoretic mobility) [3]: 20

Substance: Glucose-GS-AELAALEAELAALE-(Ahx)2-E (adenine)-E (adenine)-(Ahx)2-KLAALKAKLAALKAG-GS [Glc1-AA-U0]
- electrophoretic mobility (EMSA) ([4]; nucleobase ratio 40:1, compared with Example 15): delayed relatively more
- electrophoretic mobility (EMSA) ([4]; nucleobase ratio 80:1): delayed completely

Substance: Glucose-GS-AELAALEAELAALE-(Ahx)2-E (thymine)-E (thymine)-(Ahx)2-KLAALKAKLAALKAG-GS [Glc1-TT-U0]
- electrophoretic mobility (EMSA) ([4]; nucleobase ratio 80:1): no electrophoretic mobility was observed

Substance: Glucose-GS-AELAALEAELAALE-(Ahx)2-K-(Ahx)2-KLAALKAKLAALKAG-K(^Nglucose)-NH2 [SAB-g3]
- +/− (optimum charge ratio of EGFP mRNA and conjugate showing completely delayed electrophoretic mobility) [3]: 0.25
- Hill coefficient [3]: 4.6
- half-saturation constant KSAB-g3 [3]: 0.152

Substance: Glucose-GS-AELAALEUELAALE-(Ahx)2-E (adenine)E (adenine)-(Ahx)2-KLAALKUKLAALKAG-K (glucose) [Glc2-AA-U2]
- nanostructure formation (EMSA) [2, 5]: formed successfully

Substance: Glucose-GS-AELAALEUELAALE-(Ahx)2-K-(Ahx)2-KLAALKUKLAALKAG-K(^Nglucose)-NH2 [SAB-g4]
- +/− (optimum charge ratio of EGFP mRNA and conjugate showing completely delayed electrophoretic mobility) [3]: 5

Substance: Glucose-GS-AELUALEAELAULE-(Ahx)2-E (adenine)E (adenine)-(Ahx)2-KLUALKAKLAULKAG-K (glucose) [Glc2-AA-U4]
- nanostructure formation (EMSA) [2, 5]: formed successfully

Substance: Glucose-GS-AELUALEAELAULE-(Ahx)2-K-(Ahx)2-KLUALKAKLAULKAG-K(^Nglucose)-NH2 [SAB-g5]
- +/− (optimum charge ratio of EGFP mRNA and conjugate showing completely delayed electrophoretic mobility) [3]: 10

Substance: Glucose-GS-AELUALEUELAULE-(Ahx)2-E (adenine)E (adenine)-(Ahx)2-KLUALKUKLAULKAG-K (glucose) [Glc2-AA-U6]
- nanostructure formation (EMSA) [2, 5]: formed successfully

Substance: Glucose-GS-AELUALEUELAULE-(Ahx)2-K-(Ahx)2-KLUALKUKLAULKAG-K(^Nglucose)-NH2 [SAB-g6]
- +/− (optimum charge ratio of EGFP mRNA and conjugate showing completely delayed electrophoretic mobility) [3]: >4

Substance: Glucose-GS-UELUALEUELAULE-(Ahx)2-E (adenine)E (adenine)-(Ahx)2-KLUALKUKLAULKUG-K (glucose) [Glc2-AA-U8]
- nanostructure formation with EGFP mRNA (EMSA) ([3]; four conjugates used together (AA 6%, CC 21%, GG 26%, TT 47%), nucleobase ratio 1:1-1:15): successfully forms the nanostructure
- nanostructure formation (EMSA) after sonication or heating of conjugate ([2]; nucleobase ratios 20, 30 or 40, sonicated 5 minutes or heated at 90° C. 5 minutes): successfully binding to ssDNA PolyT200

Substance: Glucose-GS-UELUALEUELAULE-(Ahx)2-E (cytosine)E (cytosine)-(Ahx)2-KLUALKUKLAULKUG-K (glucose) [Glc2-CC-U8]
- nanostructure formation with EGFP mRNA (EMSA) [3]: successfully forms the nanostructure

Substance: Glucose-GS-UELUALEUELAULE-(Ahx)2-E (guanine)E (guanine)-(Ahx)2-KLUALKUKLAULKUG-K (glucose) [Glc2-GG-U8]
- nanostructure formation with EGFP mRNA (EMSA) [3]: successfully forms the nanostructure

Substance: Glucose-GS-UELUALEUELAULE-(Ahx)2-E (thymine)E (thymine)-(Ahx)2-KLUALKUKLAULKUG-K (glucose) [Glc2-TT-U8]
- nanostructure formation with EGFP mRNA (EMSA) [3]: successfully forms the nanostructure

Substance: Glucose-SGSG-C-GG-AUAUAUAUAUA-GG-R-GG-AUAUAUAUAUA-GG-C (cyclic; disulfide) [SAB #31]
- EMSA bands of EGFP mRNA [3]: bands of the EGFP mRNA weaken gradually with the increase of charge ratio

Substance: Glucose-SGSG-C-GG-AUAUAUAUAUA-GG-R-GG-AUAUAUAUAUA-GG-C (linear) [#30]
- charge ratio (+/−) at which a complete nanostructure was formed [3]: ≥ 8

Substance: Glycolic acid-SGSG-C-GG-AUAUAUAUAUA-GG-R-GG-AUAUAUAUAUA-GG-C (cyclic; disulfide) [cyc-R(AU)A5-Ga]
- charge ratio (+/−) at which a complete nanostructure was formed [3, 6]: 16

Substance: Glycolic acid-SGSG-C-GG-AUAUAUAUAUA-GG-R-GG-AUAUAUAUAUA-GG-C (linear) [lin-R(AU)A5-Ga]
- charge ratio (+/−) at which a complete nanostructure was formed [3, 6]: ≥ 1.0
